# In patent US20140162309A1, “Arsenical Fluorescent Agents and Assays” (priority 2010, published 2014):
# Assay: Fluorimetric response of arsenical dye upon introduction of TSH2 (liquid-liquid method)
# Source text: When unbound, FlAsH-EDT2 is virtually non-fluorescent. Upon binding of four sulfur atoms, free rotation about the As—C bond is restricted, and the dye becomes brightly fluorescent. Since this visualization method labels proteins inside of cells with low background fluorescence, we hypothesized that this molecular sensor could detect the parasite metabolite without interference from other thiols present in biological fluids. The binding of two molecules of TSH2 should prevent the free rotation about the As—C bond in FlAsH, causing a fluorimetric response.
# FlAsH-EDT2 was virtually non-fluorescent, but upon introduction of TSH2, the fluorescence intensity rose. After approximately 10 minutes, the reaction reached saturation. […] The excitation and emission maxima for the conjugate were 505 nm and 527 nm respectively. This increase in fluorescence is readily detectable without a fluorimeter using a simple handheld black light such as those used at airport security checkpoints. This detection method could be implemented easily in a low technology, resource poor setting. We examined the limits of detection of the metabolite with FlAsH-EDT2. In our liquid-liquid method, a 10-fold excess of the metabolite is sufficient to observe a fluorimetric response within twenty minutes. Therefore, 2.5 nmol of the dye can be used to detect 25 nmol of the metabolite. While lower concentrations were detectable using a fluorimeter, the conjugation was too slow to be practical. However, FlAsH-EDT2 was not designed and is not optimized for this purpose, and it requires two molecules of TSH2 to bind in order to achieve the desired fluorescence response.
smiles,measurement,setting,value
O=C(O)c1ccccc1-c1c2ccc(=O)c([As]3SCCS3)c-2oc2c([As]3SCCS3)c(O)ccc12 [FlAsH-EDT2],amount of metabolite detected (limit of detection),"2.5 nmol of the dye, liquid-liquid method",25 nmol
same,time until the reaction reached saturation,after introduction of TSH2,approximately 10 minutes
same,excess of the metabolite sufficient to observe a fluorimetric response,"liquid-liquid method, response within twenty minutes",10 fold
same,fluorescence of unbound dye as % of the fluorescence of the FlAsH-(TSH2)2 conjugate,normalized fluorescence measurements,0.4%
